Reference: patent US12691070B2, “Cationic lipids and preparation method thereof” (RiboX Therapeutics HK Limited, priority 2023, dated 2026)

Tests used:
BALB/C mice [1] = experiment: In vivo expression, whole-body luminescence (IVIS)
Protocol: 6-8 week old, female BALB/C mice were injected with 0.05 mg*kg-1 of RNA-LNPs encoding for firefly-luciferase by intravenous injection. At 6 hours post injection, animals were intraperitoneally injected with 15 mg/ml of Luciferin substrate and whole-body luminescence was determined by a bioluminescent in vivo imaging system (IVIS).

RAW 264.7 cells [2] = experiment: In vitro expression of firefly-luciferase, RAW 264.7; type: cell-based
How it was run: (§1)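 Cells were transfected with firefly-luciferase-encoding RNA-LNPs at 100 ng/mL. After 72 hours they were washed and lysed, and luciferase activity in the lysates was read by luminometry.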

BALB/C mice [3] = experiment: Local tolerance determination by footpad injection; type: in vivo; conditions: cirRNA (SEQ ID NO: 1) LNP, 0.175 mg*kg-1 subcutaneous into the footpad, 24 hours post minus prior
Protocol: 6-8 week old, female BALB/C mice were injected with 0.175 mg*kg-1 RNA LNPs by subcutaneous injection into the footpad. Prior to, and 24 hours post injections, injected footpad thickness was determined by a caliper.

[4] = test system: Aspartate Aminotransferase (AST); experiment: Liver enzyme elevation in serum, AST; type: in vivo; conditions: cirRNA (SEQ ID NO: 1) LNPs, BALB/C mice, intravenous 0.5 MPK
Protocol: (§2) 6-8 week old, female BALB/C mice were injected with 0.5 mg*kg-1 of RNA LNPs by intravenous injection. At 2 and 24 hours post injection, animals were bled and sera concentrations of Alanine Aminotransferase (ALT) and Aspartate Aminotransferase (AST) were determined by a blood chemistry analyzer.

MCP-I = MCP-I cytokine elevation in serum; type: in vivo; conditions: cirRNA (SEQ ID NO: 1) LNPs, mice
Protocol: 6-8 week old, female BALB/C mice were injected with 0.5 mg*kg-1 of RNA LNPs by intravenous injection. At 2 and 24 hours post injection, animals were bled and sera concentrations of MCP-I were determined by an immunoassay (Luminex).

[5] = test system: Alanine Aminotransferase (ALT); experiment: Liver enzyme elevation in serum, ALT; type: in vivo; conditions: cirRNA (SEQ ID NO: 1) LNPs, BALB/C mice, intravenous 0.5 MPK
Protocol: as §2

[6] = LNP zeta potential (Zetasizer); type: physicochemical
How it was run: (§3)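 LNPs of ionizable lipid/DSPC/cholesterol/DMG-PEG 2000 (50:10:38.5:1.5) made by microfluidic mixing of luciferase circRNA or mRNA in pH 4.5 acetate with lipids in ethanol (3:1, 12 ml/min), ionizable lipid:nucleotide 15 or 6, then dialyzed against PBS. Size, PDI (DLS) and zeta potential on Zetasizer; encapsulation by Ribogreen ± Triton X-100.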

Hep G2 cells [7] = experiment: In vitro toxicity (CellTiter-Glo cell viability), Hep G2; type: cell-based;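 also: percent of untreated cells luminescence signal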
How it was run: (§4)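 Cells were transfected with RNA-LNPs at 1 μg/mL and, 72 hours later, viability was measured by CellTiter-Glo luminescence. Values are cell viability calculated from the luminescence signal.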

RAW 264.7 cells [8] = experiment: In vitro toxicity (CellTiter-Glo cell viability), RAW 264.7; type: cell-based;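 also: percent of untreated cells luminescence signal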
How it was run: as §4

[9] = RNA encapsulation efficacy by Quant-IT Ribogreen kit; type: physicochemical; conditions: for Encapsulation Efficiency %: LNP with cirRNA (SEQ ID NO: 1); for Encapsulation Efficiency: LNP with mRNA (SEQ ID NO: 2)
How it was run: as §3

Hep G2 cells [10] = experiment: In vitro expression of firefly-luciferase, Hep G2; type: cell-based
How it was run: as §1

[11] = LNP size and polydispersity index (PDI) by dynamic light scattering; type: physicochemical; conditions: for Size: in nm (unit assumed)
How it was run: as §3

[12] = cirRNA (SEQ ID NO: 1) LNPs, BALB/C mice
[13] = mRNA (SEQ ID NO: 2) LNP, 0.05 mg*kg-1 intravenous, 6 hours post injection
[14] = cirRNA (SEQ ID NO: 1) LNPs, firefly-luciferase luminescence, RAW 264.7 cells
[15] = mRNA (SEQ ID NO: 2) LNP, 100 ng/mL, 72 hours post transfection, luciferase activity
[16] = cirRNA (SEQ ID NO: 1) LNPs, Hep G2 cells
[17] = mRNA (SEQ ID NO: 2) LNP, 1 μg/mL, 72 hours post transfection
[18] = cirRNA (SEQ ID NO: 1) LNPs, RAW 264.7 cells
[19] = cirRNA (SEQ ID NO: 1) LNPs, firefly-luciferase luminescence, Hep G2 cells

SMILES: CCCCCCCCCCC(CCCCCCCC)COC(=O)CCCCCN(CCCCCC(=O)OCC(CCCCCCCC)CCCCCCCCCC)CCOC(=O)NCCN1CCCC1 (stereo not drawn) [Lipid 168]
- In vivo Expression (Whole Body) (BALB/C mice [1]; [12]): 4.82E+08
- In vivo Expression (Whole Body) (BALB/C mice [1]; [13]): 5.89E+09
- In vitro Expression RAW (RAW 264.7 cells [2]; [14]): 1.66E+06
- In vitro Expression RAW (RAW 264.7 cells [2]; [15]): 6.99E+05
- Footpad Thickness (24 h−0 h, mm) (BALB/C mice [3]): 1.13 mm
- AST in Sera (IU/L) 2 hours After 0.5 MPK Injection [4]: 218.63 IU/L
- AST in Sera (IU/L) 24 hours After 0.5 MPK Injection [4]: 139.13 IU/L
- MCP-I in Sera 2 hours After 0.5 MPK Injection (MCP-I): 4607.51 pg/mL
- MCP-I in Sera 24 hours After 0.5 MPK Injection (MCP-I): 75.08 pg/mL
- ALT in Sera (IU/L) 2 hours After 0.5 MPK Injection [5]: 72.80 IU/L
- ALT in Sera (IU/L) 24 hours After 0.5 MPK Injection [5]: 57.60 IU/L
- Zeta (mV) ([6]; LNP with cirRNA (SEQ ID NO: 1)): −0.573 mV
- Zeta (mV) ([6]; LNP with mRNA (SEQ ID NO: 2)): 0.8152 mV
- In vitro Viability HepG2 (Hep G2 cells [7]; [16]): 55%
- In vitro Viability HepG2 (Hep G2 cells [7]; [17]): 70%
- In vitro Viability RAW (RAW 264.7 cells [8]; [18]): 79%
- In vitro Viability RAW (RAW 264.7 cells [8]; [17]): 75%
- Encapsulation Efficiency % [9]: 97%
- Encapsulation Efficiency [9]: 89.10%
- In vitro Expression HepG2 (Hep G2 cells [10]; [19]): 1.03E+07
- In vitro Expression HepG2 (Hep G2 cells [10]; [15]): 1.80E+07
- PDI ([11]; LNP with cirRNA (SEQ ID NO: 1)): 0.06
- Size ([11]; LNP with cirRNA (SEQ ID NO: 1)): 93.98
- PDI ([11]; LNP with mRNA (SEQ ID NO: 2)): 0.101
- Size ([11]; LNP with mRNA (SEQ ID NO: 2)): 68.36

SMILES: CCCCC/C=C\C/C=C\CCCCCCCCN(CCCCCCCC(=O)OC(CCCCCCCC)CCCCCCCC)CCOC(=O)NCc1ncc[nH]1 [Lipid 132, heptadecan-9-yl 8-((2-((((1H-imidazol-2-yl)methyl)carbamoyl)oxy)ethyl)((9Z,12Z)-octadeca-9,12-dien-1-yl)amino)octanoate]
- In vivo Expression (Whole Body) (BALB/C mice [1]; [12]): 6.13E+08
- In vivo Expression (Whole Body) (BALB/C mice [1]; [13]): 6.62E+08
- In vitro Expression RAW (RAW 264.7 cells [2]; [14]): 4.24E+05
- In vitro Expression RAW (RAW 264.7 cells [2]; [15]): 1.27E+05
- Footpad Thickness (24 h−0 h, mm) (BALB/C mice [3]): 1.24 mm
- AST in Sera (IU/L) 2 hours After 0.5 MPK Injection [4]: 136.00 IU/L
- AST in Sera (IU/L) 24 hours After 0.5 MPK Injection [4]: 72.53 IU/L
- MCP-I in Sera 2 hours After 0.5 MPK Injection (MCP-I): 28.53 pg/mL
- MCP-I in Sera 24 hours After 0.5 MPK Injection (MCP-I): 96.56 pg/mL
- ALT in Sera (IU/L) 2 hours After 0.5 MPK Injection [5]: 65.03 IU/L
- ALT in Sera (IU/L) 24 hours After 0.5 MPK Injection [5]: 44.73 IU/L
- Zeta (mV) ([6]; LNP with cirRNA (SEQ ID NO: 1)): −0.7024 mV
- Zeta (mV) ([6]; LNP with mRNA (SEQ ID NO: 2)): −8.336 mV
- In vitro Viability HepG2 (Hep G2 cells [7]; [16]): 97%
- In vitro Viability HepG2 (Hep G2 cells [7]; [17]): 80%
- In vitro Viability RAW (RAW 264.7 cells [8]; [18]): 108%
- In vitro Viability RAW (RAW 264.7 cells [8]; [17]): 93%
- Encapsulation Efficiency % [9]: 97%
- Encapsulation Efficiency [9]: 89.06%
- In vitro Expression HepG2 (Hep G2 cells [10]; [19]): 1.44E+05
- In vitro Expression HepG2 (Hep G2 cells [10]; [15]): 1.83E+05
- PDI ([11]; LNP with cirRNA (SEQ ID NO: 1)): 0.072
- Size ([11]; LNP with cirRNA (SEQ ID NO: 1)): 91.78
- PDI ([11]; LNP with mRNA (SEQ ID NO: 2)): 0.2359
- Size ([11]; LNP with mRNA (SEQ ID NO: 2)): 56.12

SMILES: CCCCC/C=C\CCOC(=O)CCCCCN(CCCCCC(=O)OCC(CCCCCCCC)CCCCCCCCCC)CCOC(=O)NCCN1CCCCC1 (stereo not drawn) [Lipid 245]
- In vivo Expression (Whole Body) (BALB/C mice [1]; [12]): 2.99E+08
- In vivo Expression (Whole Body) (BALB/C mice [1]; [13]): 1.18E+08
- In vitro Expression RAW (RAW 264.7 cells [2]; [14]): 2.68E+05
- In vitro Expression RAW (RAW 264.7 cells [2]; [15]): 3.81E+06
- Footpad Thickness (24 h−0 h, mm) (BALB/C mice [3]): 0.68 mm
- AST in Sera (IU/L) 2 hours After 0.5 MPK Injection [4]: 387.00 IU/L
- AST in Sera (IU/L) 24 hours After 0.5 MPK Injection [4]: 187.67 IU/L
- MCP-I in Sera 2 hours After 0.5 MPK Injection (MCP-I): 2543.33 pg/mL
- MCP-I in Sera 24 hours After 0.5 MPK Injection (MCP-I): 342.29 pg/mL
- ALT in Sera (IU/L) 2 hours After 0.5 MPK Injection [5]: 136.50 IU/L
- ALT in Sera (IU/L) 24 hours After 0.5 MPK Injection [5]: 107.33 IU/L
- Zeta (mV) ([6]; LNP with cirRNA (SEQ ID NO: 1)): −5.02 mV
- Zeta (mV) ([6]; LNP with mRNA (SEQ ID NO: 2)): 2.004 mV
- In vitro Viability HepG2 (Hep G2 cells [7]; [16]): 88%
- In vitro Viability HepG2 (Hep G2 cells [7]; [17]): 118%
- In vitro Viability RAW (RAW 264.7 cells [8]; [18]): 94%
- In vitro Viability RAW (RAW 264.7 cells [8]; [17]): 89%
- Encapsulation Efficiency % [9]: 86%
- Encapsulation Efficiency [9]: 85.53%
- In vitro Expression HepG2 (Hep G2 cells [10]; [19]): 7.24E+05
- In vitro Expression HepG2 (Hep G2 cells [10]; [15]): 4.35E+06
- PDI ([11]; LNP with cirRNA (SEQ ID NO: 1)): 0.12
- Size ([11]; LNP with cirRNA (SEQ ID NO: 1)): 99.5
- PDI ([11]; LNP with mRNA (SEQ ID NO: 2)): 0.1109
- Size ([11]; LNP with mRNA (SEQ ID NO: 2)): 108.8
